By inhibition is commonly meant the change of the read-out against control, counted positive when it falls.

SMILES strings stand for the structures.

The subject of series [1] is TNF-α in serum, LPS-induced systemic inflammatory disease. Kind of series: Suppressive effects on LPS-induced systemic inflammatory disease in mice (serum TNF-α). Particulars: doses of 50 and 100 mg/kg, oral, 2 hours prior to LPS 15 mg/kg i.p. The format is in vivo, C57BL/6 mice. As for the experimental part:
As experimental animals, 8-week-old C57BL/6 (20 to 23 g) mice were supplied from Orient Bio Co., Ltd. (Seongnam, Gyeonggi-do) and used. The mice were acclimatized for 2 weeks or more in an animal room of the Korea Research Institute of Chemical Technology, where temperature (22±1° C.) and humidity (50±10%) were automatically adjusted, and then used for experiments, and allowed to freely ingest water and feed. This animal experiment was performed with the approval of the Animal Care and Use Committee of the Korea Research Institute of Chemical Technology. A systemic inflammatory disease was induced by administering a dose of 15 mg/kg lipopolysaccharide (LPS, Sigma L2880) intraperitoneally to the mice. A test drug was suspended in a 10% Cremophor solution and administered orally 2 hours prior to LPS injection, the mice were anesthetized with isoflurane 1 hour after LPS administration, and blood was collected from the heart. Serum was obtained by centrifuging the collected blood at 13,000 rpm for 15 minutes, store at −20° C., and then taken if needed to measure the content of cytokine (TNF-α) in serum using an ELISA kit manufactured by BD Biosciences. […]

For series [2], the system named is ISG promoter, THP1-Lucia™ ISG cell line. Nature of the series: ISG promoter inhibition, THP1-Lucia ISG cell line. The format is cell-based. Particulars: 1 μg/ml Poly(dA:dT)/LyoVec, 24 hours, read-out: ISG, % inhibition degree. The method in brief: (§1)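 THP1-Lucia cells (NF-κB line 1×10^4/well, ISG line 2×10^4/well) preincubated with compound for 30 minutes. Stimulation then used 100 ng/ml LPS (NF-κB) or 1 μg/ml Poly(dA:dT)/LyoVec (ISG) for 24 hours. Secreted luciferase in supernatant measured by Quanti-luc luminescence.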

The subject of series [3] is TMD-8 cells (B-cell lymphoma cell line). Kind of series: Antitumor effect in SCID mice transplanted with TMD-8. The format is in vivo. As for the experimental part:
As experimental animals, severe combined immunodeficiency (SCID) mice (C.B-17/IcrCrj-scid, female) were purchased from Charles River Laboratories Japan, Inc., and used. The mice were acclimatized for 2 weeks or more in an animal room, where temperature (22±1° C.) and humidity (50±10%) were automatically adjusted, and then used for experiments, and allowed to freely ingest water and feed. This animal experiment was performed with the approval of the Animal Care and Use Committee of the Korea Research Institute of Chemical Technology. As a TMD-8 cell line, which is a B-cell lymphoma cell line, a cell line whose subculture had been maintained in the Korea Research Institute of Chemical Technology was used.
Tumors in SCID mice were induced by transplanting TMD-8 cells at 9×10^6 cells/mouse to the right subcutaneous flank of each animal, and when the size of the transplanted tumor reached about 200 mm^3, drug administration was started ([…]). The test drug was suspended in a solution of 20% PEG400 and 3% Tween 80, and orally administered once a day for 14 days. After the test drug was administered, the diameter of the tumor (that is, a long diameter (a) and a short diameter (b) was measured using a calipers every 2 to 3 days, and according to a mathematical formula [size (mm^3) of tumor=(a×b^2)/2], the size (mm^3) of tumor was calculated, and is illustrated in FIGS. 3 and 4. As control drugs, PF-06650833 (Sigma) and ibrutinib (Medichem Express) were purchased and used, and the statistical significance of the antitumor effect of the test drug was verified using a student's T-test (SigmaStat, Jandel Scientific) program.

Series [4] relates to TNF-α secretion, peripheral blood mononuclear cells (PBMCs). Nature of the series: Suppression of TNF-α secretion in LPS-treated PBMCs (ELISA). The class given is cell-based. Particulars: PBMC, 100 ng/ml LPS, 24 hours, read-out: TNF-α, % inhibition degree. The method in brief:
(§2)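 PBMCs (1×10^5 cells/well for TNF-α, 2×10^5 for IFN-α) preincubated 30 min with compound, then stimulated with 100 ng/ml LPS for 24 h (TNF-α) or 500 nM ODN2216 for 72 h (IFN-α). Cytokines in supernatants quantified by sandwich ELISA with TMB, absorbance 450/570 nm.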
A general note: ELISA stands for enzyme-linked immunosorbent assay.

The subject of series [5] is IFN-α secretion, peripheral blood mononuclear cells (PBMCs). Kind of series: Suppression of IFN-α secretion in ODN2216-treated PBMCs (ELISA). The format is cell-based. Particulars: PBMC, 500 nM ODN2216, 72 hours, read-out: IFN-α, % inhibition degree. An outline of the steps: as §2
In series [6] the test system is NF-κB promoter, THP1-Lucia™ NF-κB cell line. Kind of series: NF-κB promoter inhibition, THP1-Lucia NF-κB cell line. The class given is cell-based. Particulars: 100 ng/ml LPS, 24 hours, read-out: NF-κB, % inhibition degree. The method in brief:
as §1

As for `Fc1cncc(-c2ccc3[nH]c4ncnc(N[C@H]5CC[C@H](N6CCOCC6)CC5)c4c3c2)c1` [Compound 6aaf, 6-(5-fluoropyridin-3-yl)-N-(trans-4-morpholinocyclohexyl)-9H-pyrimido[4,5-b]indole-4-amine], the “suppressive effect on systemic inflammation (serum TNF-α) compared to PF-06650833” value in series [1] is listed as “better suppressive effect than PF-06650833”. Further, the inhibition at 0.1 µM in series [2] (0.1 μM) turned out to be 24%; in series [4] (0.1 μM), 51%; in series [5] (0.1 μM) it was 48%; in series [6] (0.1 μM), 43%. Also, the inhibition at 1 µM worked out at 83% in series [2] (1 μM), 124% in series [4] (1 μM), 96% in series [5] (1 μM) and 82% in series [6] (1 μM). The “antitumor effect (tumor size) in combination with ibrutinib” value in series [3] (administered in combination with ibrutinib, oral, once a day for 14 days) is reported as “excellent effect”. Moreover, the “change in body weight of the experimental animals” value in series [3] (during the test period) is given as “not much change”. Moreover, in series [3] (oral, once a day for 14 days, TMD-8 xenograft), the “antitumor effect (tumor size) compared to PF-06650833” value is recorded as “did not show a significant difference in effect when compared to PF-06650833, but showed a slightly better tendency”.

(Values after patent US12378250B2, “Tricyclic compound as IRAK4 inhibitor” (KOREA RESEARCH INSTITUTE OF CHEMICAL TECHNOLOGY, priority 2018, dated 2025).)
